The text below walks through data of a melting point compilation (Tetko et al.; mined from patent text by program, amines drawn as free bases though some values may be those of a salt).

With `N#Cc1cc(Br)c(OC(=O)OCI)c(Br)c1`, the melting point (as a rule, the temperature, or range, at which the solid turns liquid) was in the range of 103 to 105 °C.
Compound `CCN(CC)CC1CCCCN1CC#CCN1c2ccccc2C(=O)Nc2cccnc21` (centres undefined) showed a melting point of 132 to 134 °C.
`CCOc1nc2c(C)sc(C(=O)OC)c2n1Cc1ccc(-c2ccccc2)c(-c2nc(=O)o[nH]2)c1` yielded a melting point of 208 to 210 °C.
In turn, `Cc1cc(-n2ccnc2)c2cccc(OCc3c(Cl)ccc(S(=O)(=O)N4CCCC4C(=O)NCC4CCN(CCC(=O)OC(C)(C)C)CC4)c3Cl)c2n1` (centres undefined) registered a melting point of 92 °C.
As for `O=C(O)CN1C(=O)C(=Cc2ccccc2Cl)SC1=S`, the figure is 238 to 242 °C; as for `CCOC(=O)COC1CCC2C3CCC4NC(=O)CCC4(C)C3CCC12C` (centres undefined), 170 to 172 °C; as for `COc1ccc(NC(=O)c2ccc(Br)o2)cc1N1CCN(C)CC1`, 125 to 127 °C.
As for `C=C(Cc1ccccc1)C(=O)NN1CCSCC1`, the figure is 141 °C; as for `CC(C)N(C(=O)COc1nnc(C(F)F)s1)c1cccc(Cl)c1`, 98 °C.
The same measure for `CNC(=O)c1cccc(C=O)c1O`: 129 to 131 °C; for `CCn1cc(C(=O)O)c(=O)c2cc(F)c(N3CCN(S(=O)(=O)c4ccccc4)CC3)c(F)c21`: 234 to 235 °C; for `NC(=O)c1c(Cl)c(-c2ccccc2)n2c1CN(S(=O)(=O)c1cccc(C(F)(F)F)c1)CC2`: 158 to 159 °C.
Turning to `O=Cc1ccc(-c2nc3ccccn3n2)cc1`, the melting point lay within 246 to 247 °C.
The same measure for `COC(=O)CCCC(=O)N(C)CCc1c[nH]c2ccccc12`: 101 to 102 °C; for `CCCNc1cccc(-c2ccnc3c(C(=O)c4cccs4)cnn23)c1`: 128 to 130 °C; for `COc1ccc(-c2ccc(COc3cccc4cc(NS(=O)(=O)C(F)(F)F)ccc34)c(F)c2)cc1`: 108 to 111 °C.
As to `ON=C1c2ccccc2CCC1c1ccccc1` (centres undefined), the melting point lay within 156 to 157 °C.
In turn, `C=CCOc1cc(-n2c(=O)cc(C(F)(F)F)n(C)c2=O)ccc1C#N` showed a melting point of 158 to 160 °C.
The same measure for `C[C@@H](n1cnc2cc(N(C)C)ccc2c1=O)[C@](O)(Cn1cncn1)c1ccc(F)cc1F`: 201 °C; for `N#CCCNC(=O)C1=CC(CF)(CF)Oc2ccc(C(F)(F)F)cc21`: 129 to 131 °C.
As to `CC(C)(C)OC(=O)NCC1CNC1`, the melting point was 112 to 114 °C.
Compound `Nc1nc2cc(-c3ccccc3)ccc2c2c1ncn2CCCN1CCCC1=O` displayed a melting point of 201 to 204 °C.
The same measure for `Cc1nc2c(N)nc3c(c2n1CCCCS(=O)(=O)c1ccc(F)cc1)CCCC3`: 159 to 162 °C; for `c1ccc(CCCCNCCOc2cccc3[nH]ccc23)cc1`: 99 to 101 °C; for `CCOC(=O)C1CN(C(=O)c2cc(OC)c(OC)c(OC)c2)CCN1` (centres undefined): 114 to 115 °C.
`COC(=O)NNC(=O)c1ccc(Cl)cc1` registered a melting point of 160 °C.
Compound `CCCOc1nc(N)c2ncn(C3C=CCCC3)c2n1` (centres undefined) gave a melting point of 157 to 159 °C.
The same measure for `COc1ccc(NC(C)=S)cc1C`: 88.5 to 89 °C; for `Cc1nc(C)c(C(=O)OCC2CCCO2)c(-c2cccc([N+](=O)[O-])c2)c1C(=O)OCC1CCCO1` (centres undefined): 75 to 77 °C; for `Cn1nnn(-c2c(Cl)ccc(C(=O)C3C(=O)CCCC3=O)c2Cl)c1=O`: 138 to 140 °C.
For the compound `O=S(=O)(NCCO)c1ccc(Nc2nc(OCC3CCCCC3)c3nc[nH]c3n2)cc1`, the melting point was 158 to 160 °C.
The same measure for `CCOC(=O)c1ccc(OCCCCCCCCCCCCCCOc2ccc(Cl)cc2)cc1`: 72.5 to 73.5 °C.
`Oc1ccc(Sc2cccc(O)n2)cc1` registered a melting point of 234 to 238 °C.
For `CCOC(=O)C(N=C(c1cc(Cl)ccc1N)c1ccccc1F)C(=O)OCC`, the melting point came to 119 °C.
In the case of `O=C1CCCc2c1ccc(O)c2Br`, the melting point lay in the range of 183 to 186 °C.
In the case of `CCOC(=O)C1=C(C)NC(CSc2ncccn2)=C(C(=O)OCC)C1c1cccc([N+](=O)[O-])c1` (centres undefined), the melting point fell in the range of 115 to 117 °C.
As for `COc1cc(OC)cc(-c2ncoc2-c2ccc(OC)c(O)c2F)c1`, the figure is 168 to 172 °C; as for `COc1cc(OC)cc(N2CCN(C(=O)Nc3cc(-c4cccnc4)nc4ccccc34)CC2)c1`, 95 to 96 °C.
The same measure for `Cc1nc2n(n1)C(N)(c1ccccc1)c1cc(Cl)ccc1-2` (centres undefined): 173 to 175 °C; for `C=CCC12CCC(c3ccccc31)c1ccccc12`: 42 to 43 °C; for `O=C(O)Cc1cc(Cl)ccc1OCc1ccccc1`: 76 to 77.5 °C.
As for `CCC#CC(C)(C)NC(=O)C(CC)Oc1cncc(C(=O)O)c1` (centres undefined), the figure is 162 to 164 °C; as for `O=C(OCCOCc1ccccc1)n1c(-c2cscn2)nc2ccccc21`, 93 to 95 °C.
Regarding `O=C(O)C(Oc1ccc(N2CCCCC2)cc1)c1cccc(Cl)c1` (centres undefined), the melting point was 149 to 151 °C.
On to `CC(C(=O)CC#N)c1ccc(-c2ccccc2)c(F)c1` (centres undefined), for which the melting point lay in the range of 84 to 85 °C.
In turn, `Nc1ccc2nc(-c3ccccc3)cc(OCC(=O)N3CCOCC3)c2c1` registered a melting point of 194 °C.
`COc1nc(OC)c(C(C)C)c(C(=O)c2cc(C)cc(C=CC#N)c2)n1` came in with a melting point of 144 to 145 °C.
Compound `O=c1ccccn1CCCn1ccccc1=O` gave a melting point of 132 °C.
Compound `N#CC(NC(=O)c1ccnc(Cl)c1)c1cccs1` (centres undefined) displayed a melting point of 123 to 125 °C.
As for `CCOc1ccccc1N(C[C@H]1CC[C@H](CN(C(=O)Nc2ccc(N(C)C)cc2)c2ccccc2OCC)CC1)C(=O)Nc1ccc(N(C)C)cc1`, the melting point is 153 to 155 °C.
`COCCNS(=O)(=O)c1ccc(Nc2nc(OCC3CCCCC3)c3nc[nH]c3n2)cc1`: the melting point was 120 to 122 °C.
For `CCOC(=O)COc1ccc2c(c1)C[C@H](NC(=O)OC(C)(C)C)CC2`, the melting point was 113 to 115 °C.
As for `CCCN(CCCNc1ncc(Cc2ccc(F)cc2)c(=O)[nH]1)c1ccccn1`, the figure is 107 to 109 °C.
For the compound `O=C1C(F)N(c2ccc(Oc3ccccc3)cc2)C(=S)N1c1ccccc1` (centres undefined), the melting point stood at 126 °C.
Take `CNC(C)=Nc1ccc(-c2c[nH]cn2)cc1`: the melting point was in the range of 226 to 227 °C.
Compound `CC(=O)NCCC1=C(C(C)C)Cc2ccc3nc(C)oc3c21` had a melting point of 135 to 138 °C.
In turn, `N#Cc1[nH]c(-c2c(Cl)cc(C(F)(F)F)cc2Cl)nc1C(N)=O` displayed a melting point of 254 to 255 °C.
On to `CCOC(=O)c1cnc(-c2ccccc2)nc1Nc1ccccc1`, for which the melting point lay in the range of 98 to 100 °C.
As for `Cc1c2cccc(-c3cccc(C(=O)NCCC#N)c3)c2nn1Cc1cccc(C(F)(F)F)c1`, the figure is 196 to 197 °C; as for `CC1CCCC=C1c1ccc(C(=O)O)cc1` (centres undefined), 146 to 147 °C; as for `CC(C)(C)[Si](C)(C)O[C@@H]1c2cc(Br)ccc2-c2ccc(Br)cc2[C@H]1O[Si](C)(C)C(C)(C)C` (relative stereo), 162 to 163 °C.
The same measure for `COc1ccc(NC(C)C)c(S)c1`: 68 to 69 °C.
Turning to `COc1ccc(S(=O)(=O)N(CC(N)=O)c2ccc(Cl)cc2Cc2ccccc2Cl)cc1`, the melting point amounted to 150 °C.
Turning to `CCOC(=O)c1cnn2c1c(SC)nc1ccccc12`, the melting point was in the range of 97 to 98 °C.
